Measurements: patent US10738041B2, “Ferroportin inhibitors” (Vifor (International) AG, priority 2015, dated 2020)

Columns and labels:
[1] = target: T1, human Fpn (Homo sapiens, UniProt Q9NP59); experiment: Biophysical Ferroportin-Hepcidin Binding Assay (fluorescence polarization); settings: average of multiple measurements; 1 μM human Fpn, 20 nM TMR-hepcidin; read-out: FP IC50
T1 construct: FLAG (C); made in house; host or cells: Pichia pastoris
T1 sequence (Q9NP59 1-571): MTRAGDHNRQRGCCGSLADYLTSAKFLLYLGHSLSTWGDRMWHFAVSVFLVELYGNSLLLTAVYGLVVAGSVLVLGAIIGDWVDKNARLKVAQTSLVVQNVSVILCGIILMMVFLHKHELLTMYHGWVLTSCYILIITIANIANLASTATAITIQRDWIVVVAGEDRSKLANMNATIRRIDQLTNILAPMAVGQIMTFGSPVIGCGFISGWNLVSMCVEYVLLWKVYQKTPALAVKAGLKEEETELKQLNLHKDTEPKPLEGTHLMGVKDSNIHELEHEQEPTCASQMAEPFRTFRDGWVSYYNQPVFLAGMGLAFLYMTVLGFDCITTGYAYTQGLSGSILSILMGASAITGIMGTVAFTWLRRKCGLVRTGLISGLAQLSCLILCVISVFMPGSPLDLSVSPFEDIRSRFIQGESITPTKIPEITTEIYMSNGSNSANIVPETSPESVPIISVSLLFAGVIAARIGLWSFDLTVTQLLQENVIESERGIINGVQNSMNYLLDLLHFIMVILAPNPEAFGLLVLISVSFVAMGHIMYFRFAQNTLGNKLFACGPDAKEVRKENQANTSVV
Procedure: This biophysical assay was developed to confirm inhibition of hepcidin binding to ferroportin (Fpn) more directly. Incubation of TMR-hepcidin with purified human Fpn isolated from Pichia pastoris yeast cells expressing human Fpn with a C-terminal FLAG affinity tag (Bonaccorsi di Patti, 2014) leads to increased fluorescence polarization (FP) of the TMR-hepcidin ligand. Small molecular weight Fpn inhibitors were tested for inhibition of binding of TMR-hepcidin to Fpn, as detected by dose-dependent decrease of the TMR FP signal, as described in detail below.
8 μl of serial dilutions of test compounds were added in duplicates to reach final Fpn and TMR-hepcidin concentrations of 1 μM and 20 nM, respectively. Plates were incubated for 90 minutes at room temperature and parallel (S) and perpendicular (P) fluorescence was measured in a Synergy H1 fluorescence reader (BioTek). FP values were calculated in mP according to the following formula.

[2] = target: T2, ferroportin (Fpn) (Mus musculus, UniProt Q9JHI9); experiment: Hepcidin Internalization Assay (J774); type: cell-based; settings: average of multiple measurements; inhibition of TMR-hepcidin (25 nM) internalization into J774 cells; read-out: J774 IC50
T2 construct: host or cells: J774 mouse macrophage cell line, Fe(III)-NTA induced
T2 sequence (Q9JHI9 1-570): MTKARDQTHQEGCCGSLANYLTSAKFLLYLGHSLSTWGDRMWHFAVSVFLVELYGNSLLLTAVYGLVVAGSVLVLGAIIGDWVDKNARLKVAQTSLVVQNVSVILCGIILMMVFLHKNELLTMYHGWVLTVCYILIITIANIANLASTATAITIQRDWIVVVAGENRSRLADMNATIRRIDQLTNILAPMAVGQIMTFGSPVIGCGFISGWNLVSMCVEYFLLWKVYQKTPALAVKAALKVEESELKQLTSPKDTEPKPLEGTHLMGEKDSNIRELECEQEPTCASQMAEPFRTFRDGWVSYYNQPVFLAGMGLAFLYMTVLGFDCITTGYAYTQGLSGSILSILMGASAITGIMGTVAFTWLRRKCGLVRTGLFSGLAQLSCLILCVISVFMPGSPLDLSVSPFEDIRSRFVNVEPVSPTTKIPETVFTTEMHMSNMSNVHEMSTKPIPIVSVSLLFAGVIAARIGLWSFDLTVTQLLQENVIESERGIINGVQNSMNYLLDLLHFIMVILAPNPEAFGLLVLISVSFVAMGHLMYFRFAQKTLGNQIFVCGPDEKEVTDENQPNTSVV
Excerpt: This cellular assay allows quantification of the binding of hepcidin to ferroportin (Fpn) through microscopic detection of internalization of a fluorescently labeled hepcidin into J774 cells. […] Binding of hepcidin to Fpn triggers internalization and degradation of both hepcidin and Fpn. However, the TMR (6-carboxytetramethylrhodamine) fluorophore attached to hepcidin remains associated with the cell after degradation of the hepcidin peptide backbone. Therefore, microscopic detection of ceH associated TMR fluorescence is a measure of hepcidin binding to Fpn and internalization of hepcidin and Fpn. If TMR-hepcidin is prevented from binding to Fpn, cellular TMR fluorescence remains low (Dürrenberger et al, 2013). The effect of small molecular weight Fpn inhibitor compounds in this assay was evaluated in vitro as described below.
J774 cells, harvested from ca. 80% confluent cultures, were plated at 8×10^5 cells/ml in complete medium (DMEM, 10% FBS, 1% Penicillin-Streptomycin) containing 200 μM Fe(III)NTA (nitrilotriacetic acid), 100 μl per well of 96 well MicroClear plates (Greiner; Cat. 655090) and grown at 37° C. with 5% CO2. After overnight incubation, cells were washed 3 times with pre-warmed DMEM w/o phenol red, 30 μl/well of DMEM w/o phenol red was added after the final wash and 10 μl/well of dilution series of test compounds were added in triplicates. […] Cells were incubated in a total volume of 50 μl at 37° C. with 5% CO2 for 2 hours, then Hoechst 33342 dye was added to a final concentration of 0.5 μg/ml to stain nuclei and further incubated for 10 min. at 37° C. with 5% CO2. Cells were washed 3 times with PBS and fixed in 100 μl of 4% paraformaldehyde in PBS for 15 min. at room temperature. After removal of the paraformaldehyde solution, cells were washed 3 times with PBS leaving 100 μl per well and the plates were sealed with foil plate seal. TMR (530-550 nm excitation/575-625 nm emission/400 ms exposure time) and Hoechst 33342 (360-370 nm excitation/420-460 nm emission/10 ms exposure time) fluorescence images were acquired using a ScanR plate imager (Olympus) with a 20× high NA objective. Four pictures were acquired per well and fluorescence channel covering ca. 1500 cells per well. The acquired image data was analysed with the ScanR image analysis software. Image analysis included detection of nuclei (Hoechst 33342 fluorescence), identification of cell-associated regions, application of a virtual channel and thresholding for rolling-ball-type background reduction, followed by application of the Sum(Mean) algorithm to measure the TMR fluorescence associated with cells as a quantitative measure for internalized TMR-hepcidin. IC50 values were calculated with the Sum(Mean) raw data using “log(inhibitor) vs. response” curve fitting of Prism 5 software (GraphPad Software Inc., version 5.02).

| IC50 [1] [µM] | IC50 [2] [µM] | Structure (SMILES) |
| --- | --- | --- |
| 48.6 | 12.7 | O=C(NCc1ccccc1)c1csc(CCNCc2ccc(F)cn2)n1 [Example 6] |
| 7.83 | 20.9 | O=C(NCc1ccccc1)c1csc(CCNCc2ccccn2)n1 [Example 11] |
| 3.53 | 6.4 | CN(Cc1ccccc1)C(=O)c1csc(CCNCc2nc3ccccc3[nH]2)n1 [Example 17] |
| 9.61 | 9.4 | O=C(NCc1ccccc1)c1csc(CCNCc2ncc[nH]2)n1 [Example 20] |
| 14.2 | 17.2 | CN(C)C(=O)c1csc(CCNCc2nc3ccccc3[nH]2)n1 [Example 22] |
| 3.93 | 2.2 | CC(C)N(C(=O)c1csc(CCNCc2nc3ccccc3[nH]2)n1)C1CCCCC1 [Example 25] |
| 1.12 | 0.7 | CC(C)(NC(=O)c1csc(CCNCc2nc3ccccc3[nH]2)n1)c1ccccc1 [Example 26] |
| 1.22 | 0.18 | Cn1c(CNCCc2nc(C(=O)NCc3ccccc3)cs2)nc2ccccc21 [Example 28] |
| 2.33 | 12.9 | O=C(NCc1ccccc1)c1csc(CCNCc2nc3cc(O)ccc3[nH]2)n1 [Example 30] |
| 0.94 | 1.1 | O=C(NCc1ccccc1)c1csc(CCNCc2nc3cc(F)ccc3[nH]2)n1 [Example 31] |
| 17.2 | 3.62 | O=C(NCc1ccccc1)c1csc(CCNCc2nc3cccnc3[nH]2)n1 [Example 33] |
| 4.29 | 0.36 | O=C(NCc1ccccc1)c1csc(CCNCc2cn3ccccc3n2)n1 [Example 34] |
| 2.16 | 0.19 | O=C(NCc1cccnc1)c1csc(CCNCc2nc3ccccc3[nH]2)n1 [Example 35] |
| 12 | 3.98 | CN1CCOCC1CNC(=O)c1csc(CCNCc2nc3ccccc3[nH]2)n1 (centres unmarked) [Example 41] |
| 1.48 | 0.41 | COc1ccc2[nH]c(CNCCc3nc(C(=O)NCc4ccccc4)cs3)nc2c1 [Example 50] |
| 0.436 | 0.93 | O=C(NCc1ccccc1)c1csc(CCNCc2nc3cc(OC(F)(F)F)ccc3[nH]2)n1 [Example 62] |
| 53.8 | 0.41 | O=C(NCc1ccccc1)c1ccc(CCNCc2nc3ccccc3[nH]2)cc1 [Example 66] |
| 1 | 0.37 | CC(NC(=O)c1csc(CCNCc2nc3ccccc3[nH]2)n1)c1ccccc1 (centres unmarked) [Example 73] |
| 4.15 | 0.41 | O=C(NCCc1ccccc1)c1csc(CCNCc2nc3ccccc3[nH]2)n1 [Example 78] |
| 2.97 | 0.42 | O=C(NCc1ccc(C(F)(F)F)nc1)c1csc(CCNCc2nc3ccccc3[nH]2)n1 [Example 81] |
| 1.05 | 0.096 | O=C(NCc1ccc[nH]c1=O)c1csc(CCNCc2nc3ccccc3[nH]2)n1 [Example 83] |

| Structure (SMILES) | IC50 [1] [µM] | IC50 [2] [µM] |
| --- | --- | --- |
| O=C(NCc1cccs1)c1csc(CCNCc2nc3ccccc3[nH]2)n1 [Example 16] | 1.72 | 0.9 |
| CN(C(=O)c1csc(CCNCc2nc3ccccc3[nH]2)n1)c1ccccc1 [Example 19] | 10.2 | 10 |
| O=C(NCc1cccc(N2CCCC2)c1)c1csc(CCNCc2nc3ccccc3[nH]2)n1 [Example 21] | 1.43 | 6.7 |
| O=C(NCc1ccncc1)c1csc(CCNCc2nc3ccccc3[nH]2)n1 [Example 36] | 3.65 | 0.25 |
| COc1ccc(CNC(=O)c2csc(CCNCc3nc4ccccc4[nH]3)n2)nc1 [Example 45] | 2.1 | 0.44 |
| O=C(NCc1cccc(=O)[nH]1)c1csc(CCNCc2nc3ccccc3[nH]2)n1 [Example 47] | 3.42 | 0.72 |
| NC(=O)c1ccc(CNC(=O)c2csc(CCNCc3nc4ccccc4[nH]3)n2)cn1 [Example 54] | 11.4 | 0.46 |
| O=C(NCc1nc2ccccc2[nH]1)c1csc(CCNCc2nc3ccccc3[nH]2)n1 [Example 60] | 0.974 | 2.39 |
| O=C(NCc1ccccc1N1CCOCC1)c1csc(CCNCc2nc3ccccc3[nH]2)n1 [Example 63] | 0.846 | 0.61 |
| O=C(NCc1c(F)cccc1F)c1csc(CCNCc2nc3ccccc3[nH]2)n1 [Example 69] | 1.51 | 0.26 |
| CN(C)c1ccccc1CNC(=O)c1csc(CCNCc2nc3ccccc3[nH]2)n1 [Example 70] | 1.06 | 0.53 |
| O=C(NCc1ccccc1OC(F)(F)F)c1csc(CCNCc2nc3ccccc3[nH]2)n1 [Example 72] | 0.931 | 1.36 |
| O=C(NCc1ccccc1OC(F)F)c1csc(CCNCc2nc3ccccc3[nH]2)n1 [Example 74] | 0.451 | 0.21 |
| O=C(NCCc1ccccn1)c1csc(CCNCc2nc3ccccc3[nH]2)n1 [Example 76] | 5.08 | 0.34 |
| O=C(Nc1ncccc1F)c1csc(CCNCc2nc3ccccc3[nH]2)n1 [Example 77] | 2.81 | 0.35 |
| CC(NC(=O)c1csc(CCNCc2nc3ccccc3[nH]2)n1)c1ccccn1 (centres unmarked) [Example 80] | 2.28 | 0.345 |
| Cn1cc(CNC(=O)c2csc(CCNCc3nc4ccccc4[nH]3)n2)cn1 [Example 91] | 12.1 | 2.07 |
| O=C(NCc1ncc[nH]1)c1csc(CCNCc2nc3ccccc3[nH]2)n1 [Example 95] | 13 | 7.23 |
| O=C(NCc1ncccc1F)c1cnn(C2CCN(Cc3nc4ccccc4[nH]3)CC2)c1 [Example 150] | 73 | – |
| O=C(NCc1ncccc1F)c1cnn(CC2CCCN(Cc3nc4ccccc4[nH]3)C2)c1 (centres unmarked) [Example 153] | 57.8 | – |
